Assays:
Format in all cases: cell-based
[1] = system: A. niger and P. funiculosum; test: antifungal test on agar plates, visual inspection of growth; parameters: unit not given here; conditions: agar plates, 10,000 units each, 30° C. for two weeks
Protocol: In a related test, the above biocide solutions are added to agar plates at various concentrations and the plates are then inoculated with 1 ml. of a broth containing 10,000 units each of A. niger and P. funiculosum. The plates are then incubated at 30° C. for two weeks, and growth of the fungi is visually inspected to establish the minimum inhibitory concentration (MIC).

[2] = system: most common industrial fungi and bacteria; test: biocidal activity (summary statements on bacteria and fungi); conditions: conclusion from the table, in words
Protocol: The new compounds are dissolved in DMF at a concentration of 50 mg/ml. and diluted with water to the appropriate concentration to be added to a nutrient broth in test tubes. The challenge mixture contains 1×10^6 colony-forming units each of Aerobacter aerogenes, Pseudomonoas Sp., Bacillus subtilus and Bacillus megaterium. Following inoculation, the tubes are incubated 48 hours at 37° C., subcultured to fresh nutrient broth and incubated 24 hours longer. The results are recorded as presence or absence of turbidity, turbidity indicating growth of the inoculum due to inactivity of the biocide at the concentration used in the broth. In a related test, the above biocide solutions are added to agar plates at various concentrations and the plates are then inoculated with 1 ml. of a broth containing 10,000 units each of A. niger and P. funiculosum. The plates are then incubated at 30° C. for two weeks, and growth of the fungi is visually inspected to establish the minimum inhibitory concentration (MIC).

[3] = system: Aerobacter aerogenes, Pseudomonoas Sp., Bacillus subtilus and Bacillus megaterium; test: antibacterial test in nutrient broth tubes, presence or absence of turbidity; parameters: unit not given here; conditions: 48 hours at 37° C., subcultured and incubated 24 hours longer, challenge 1×10^6 colony-forming units each
Protocol: The new compounds are dissolved in DMF at a concentration of 50 mg/ml. and diluted with water to the appropriate concentration to be added to a nutrient broth in test tubes. The challenge mixture contains 1×10^6 colony-forming units each of Aerobacter aerogenes, Pseudomonoas Sp., Bacillus subtilus and Bacillus megaterium. Following inoculation, the tubes are incubated 48 hours at 37° C., subcultured to fresh nutrient broth and incubated 24 hours longer. The results are recorded as presence or absence of turbidity, turbidity indicating growth of the inoculum due to inactivity of the biocide at the concentration used in the broth.

SMILES	Antifungal MIC [1]	Antibacterial MIC [3]	biocidal activity [2]
O=C1C=CC(=O)N1c1ccc(S(=O)(=O)C(Cl)(Cl)Cl)cc1 [R= CCL3, reference compound]	inactive	inactive	ineffective
O=C1C=CC(=O)N1c1ccc(S(=O)(=O)CI)cc1 [R= p-CH2 I]	100	–	–
O=C1C=CC(=O)N1c1ccc(S(=O)(=O)C(Cl)Cl)cc1 [R= p-CHCl2, N-[p-(dichloromethylsulfonyl)phenyl]maleimide]	1000	1000	–

More lines, main results first:

Antifungal MIC [1]	Antibacterial MIC [3]	SMILES	biocidal activity [2]
1000	1000	O=C1C=CC(=O)N1c1ccc(S(=O)(=O)C(I)I)cc1 [R= p-CHI2, N-[p-(diiodomethylsulfonyl)phenyl]maleimide]	–
1000	1000	O=C1C=CC(=O)N1c1ccc(S(=O)(=O)CCl)cc1 [R=p-CH2 Cl, N-[p-(chloromethylsulfonyl)phenyl]maleimide]	–

From patent US4247559A, “N-substituted maleimides in liquid concentrates” (Abbott Laboratories, priority 1979, dated 1981)
